The target in assay [1] is T1, 14-3-3-ζ (Homo sapiens, UniProt P63104).
T1 construct: His10 (cleaved yes); made in house
T1 sequence (P63104 1-245): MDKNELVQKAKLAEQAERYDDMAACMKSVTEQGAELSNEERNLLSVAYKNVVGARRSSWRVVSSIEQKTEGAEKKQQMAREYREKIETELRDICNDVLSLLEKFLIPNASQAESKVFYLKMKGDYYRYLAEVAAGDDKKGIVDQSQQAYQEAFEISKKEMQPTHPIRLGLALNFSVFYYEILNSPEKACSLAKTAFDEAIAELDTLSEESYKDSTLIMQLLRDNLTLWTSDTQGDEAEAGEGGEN
The experiment in a line: Fluorescence polarization titration of fluorescein-labeled integrin tails with 14-3-3-ζ. In kind it is binding. The settings on record: 1 μM, ex 485 nm, em 520 nm; for binding to 14-3-3-ζ by fluorescence polarization, in words: fluorescein-labeled tail. The protocol: Fig. 6 Fluorescence polarization and ITC of interactions between integrin tails and 14-3-3-ζ. (a) Fluorescence polarization titrations of fluorescein-labeled β1A, β3 and α4 with 14-3-3-ζ. […] (b–d) ITC sensorgram of an in-cell 200 μM β1A, β2 (same as in Fig. 5a) or β3 samples injected with 2 mM 14-3-3-ζ.
For fluorescence polarization experiments, integrin tails were labeled with fluorescein-5-maleimide (Invitrogen) linked to an engineered C-terminal Cys residue. Measurements were performed using 96-well microplates (Corning) in a PHERAstar FS microplate reader (BMG Labtech). Fluorescein-labeled integrin tails at 1 μM concentration were excited at 485 nm, and polarization was recorded at 520 nm.

Assay [2] deals with paxillin (residues 1–323). Kind of assay: NMR test of α4 integrin tail interaction with paxillin N-terminal region. In kind it is binding. The settings on record: paxillin residues 1–323 with all LD motifs. The procedure:
(§1) The interactions of α4 and 14-3-3-ζ with paxillin were also investigated. The association of paxillin with α4 has been detected using pull-down experiments with glutathione S-transferase fusion proteins[22,32,33] and, very recently, by NMR in a study that also reports the solution structure of the α4 integrin tail.[34] […] The possibility that a paxillin/14-3-3-ζ association depends on phosphorylation was also assessed. The ELM (eukaryotic linear motif) server[35] indicated three putative 14-3-3 binding motifs in the paxillin N-terminus; of these, only one has been reported to be phosphorylated in vivo[36] (Supplementary Fig. 1a). […] The recent report of paxillin binding to α4 detected by NMR used shorter paxillin fragments than us, covering the LD2–LD4 region.[34] It is possible that, in the whole N-terminal paxillin, the α4 interaction sites are masked, which would explain the absence of an interaction in our studies.
Samples were prepared in NMR buffer (pH 6.5) with 5% D2O, and experiments were performed at 25 °C. Titration experiments were collected on a 500-MHz spectrometer using a water flip-back-embedded gradient enhanced ^15N–^1H HSQC pulse sequence.[46] […] Data were processed using NMRPipe[47] and analyzed with the programs CARA/XEASY[48] or CCPN Analysis.[49]

In assay [3] the target is T1, 14-3-3-ζ. The experiment in a line: ITC of integrin tail fragments with 14-3-3-ζ. In kind it is binding. The settings on record: 298 K, pH 6.5, fragment in cell, 14-3-3-ζ in syringe. The procedure: Phosphorylated α4 synthetic peptides were purchased from GL Biochem Ltd. (Shanghai). All recombinant proteins and synthetic peptides were prepared in 20 mM sodium phosphate and 50 mM NaCl (pH 6.5), and concentrations were determined by UV absorbance at 280 nm. ITC experiments using a VP-ITC200 instrument (MicroCal) were performed at 298 K as follows: the cell (volume, ~ 200 μl) contained the different integrin tail fragments, and the syringe (volume, ~ 40 μl) contained 14-3-3-ζ. A first injection of 2 μl was followed by 15 injections of 2.5 μl, with a stirring speed of 1500 rpm and a delay between injections of 180 s. A blank titration was performed by injecting 14-3-3-ζ into buffer to take the heat of dilution into account. Experiments were repeated twice for each sample. Raw data were processed and fitted with MicroCal Origin software using a one-site model where the error function is calculated as the sum of the squared deviations between the data and the model curve.

Assay [4] addresses T1, 14-3-3-ζ. The experiment in a line: 15N-1H HSQC NMR titration of 15N-labeled integrin tails with unlabeled 14-3-3-ζ. In kind it is binding. The settings on record: 15N-labeled tail 0.1 mM, equimolar unlabeled 14-3-3-ζ; NMR buffer pH 6.5, 25 °C. The procedure:
(§2) Samples were prepared in NMR buffer (pH 6.5) with 5% D2O, and experiments were performed at 25 °C. Titration experiments were collected on a 500-MHz spectrometer using a water flip-back-embedded gradient enhanced ^15N–^1H HSQC pulse sequence.[46] For the assignment of the α4 and β2 backbone resonances, ^15N–^13C integrin tails of 0.6 mM concentration were used to measure CBCA(CO)NH and CBCANH experiments on a Bruker 500-MHz instrument equipped with a cryogenic probe head. Data were processed using NMRPipe[47] and analyzed with the programs CARA/XEASY[48] or CCPN Analysis.[49]

In assay [5] the test system is paxillin (residues 1–323). The experiment in a line: ITC test of pairwise interaction with paxillin N-terminal region. In kind it is binding. The procedure: as §1
Phosphorylated α4 synthetic peptides were purchased from GL Biochem Ltd. (Shanghai). All recombinant proteins and synthetic peptides were prepared in 20 mM sodium phosphate and 50 mM NaCl (pH 6.5), and concentrations were determined by UV absorbance at 280 nm. […] Raw data were processed and fitted with MicroCal Origin software using a one-site model where the error function is calculated as the sum of the squared deviations between the data and the model curve.

A further assay deals with 14-3-3-ζ S58E. Kind of assay: NMR binding of 14-3-3-ζ variant S58E to labeled integrin tail. The settings on record: labeled β1A.
From the text: (§3) To gain further insight into the β1A/14-3-3-ζ association, we investigated the effects of 14-3-3-ζ substitutions on binding to β1A integrin tail. It has been reported that the substitution S58A in 14-3-3-β abolishes the β1A interaction.[38] S58 regulates the dimeric state of 14-3-3,[39] but it is not involved directly in binding to phospho-peptides. The binding of 14-3-3-ζ variants S58A and S58E to labeled β1A was studied using NMR. […] A similar result was obtained with the β2 integrin tail (data not shown).
as §2

Another assay concerns 14-3-3-ζ S58A. The experiment in a line: NMR binding of 14-3-3-ζ variant S58A to labeled integrin tail. The settings on record: labeled β1A.
From the text: as §3, §2

Entries after “also recorded” stand apart in the source; their conditions may differ.

Turning to “GPLGSKAGFFKRQYKSILQEENRRDSWSYINSKSNDD [α4 wt, recombinant α4 integrin cytoplasmic tail, residues 1001–1032]”, the “binding to 14-3-3-ζ by fluorescence polarization, in words” value at 14-3-3-ζ [1] was “No binding was detected”. The “interaction with paxillin by NMR, in words” value in assay [2] is on record as “no specific interaction”. Also, the “binding to 14-3-3-ζ by ITC, in words” value at 14-3-3-ζ [3] is listed as “a Kd could not be determined by ITC; also recorded: the interaction is weak, in the millimolar range”. In addition, the “change of integrin tail resonances on addition of 14-3-3-ζ, in words” value on 14-3-3-ζ [4] is given as “significant decrease in α4 amide resonance intensities”. Also, in assay [5], the “interaction with paxillin by ITC, in words” value was “no pairwise interaction was detected by ITC”.

Take “GS KLLMIIHDRREFAKFEKEKMNAKWDTGENPIYKSAVTTVVNPKYEGK (GSKLLMIIHDRREFAKFEKEKMNAKWDTGENPIYKSAVTTVVNPKYEGK; left off: His10, N-terminal, cleaved) [β1A wt, recombinant β1A integrin tail, residues 752–798]”: the “change of integrin tail resonance intensity with 14-3-3-ζ S58E, in words” value in the assay on 14-3-3-ζ S58E is listed as “the intensities change even less”. Moreover, in the assay with 14-3-3-ζ [1], the “binding to 14-3-3-ζ by fluorescence polarization, in words” value is “clearly binds”. This substance showed a Kd with 14-3-3-ζ [1] (fluorescence polarization, tail labeled with fluorescein-5-maleimide at engineered C-terminal Cys, single-site model) of 95 ± 16 µM. For the same substance, the “change of integrin tail resonances on addition of 14-3-3-ζ, in words” value with 14-3-3-ζ [4] is listed as “intensity reduction for several resonances”. In addition, the “change of integrin tail resonance intensity with 14-3-3-ζ S58A compared to wt, in words” value with 14-3-3-ζ S58A was “significant reduction in β1A resonance intensity change”.

Source of the values: publication PMC4068353, “Characterization of 14-3-3-ζ Interactions with Integrin Tails” (Journal of Molecular Biology, 2013).
